What follows are molecules tested against histamine H4 receptor (Homo sapiens, UniProt Q9H3N8) (assay: In vitro histamine H4 potency in FLIPR (Ca2+ flux, HEK-293 cells coexpressing Gαqi5)). Conditions: Kb for antagonists and inverse agonists, EC50 for partial agonists.
Type: cell-based
Parameters: expressed in transfected cells
Description: There are many methods available to show the effectiveness of compounds as histamine H4 receptor ligands. Histamine H4 receptors from mammalian species have been cloned. Methods to clone, express, and assess the potency and functional activity of such cloned genes are well known to those skilled in the art of molecular biology. […] Before testing, cells are loaded with a Ca^+2 sensitive fluorescent dye, in this case Fluo-4. In the case of partial agonist or agonist ligands, addition of compound to the cells leads to the increase in intracellular Ca^+2 which is detected by FLIPR (Fluorescence Imaging Plate Reader; Molecular Devices, Sunnyvale, Calif.) technology. […] The fluorescence intensities measured before addition of the test compound are subtracted from the fluorescence intensities at later time points. Peak response values determined at each concentration of ligand are expressed as a percentage of the response obtained with the full agonist histamine. Concentration versus response data are analyzed to obtain compound potency as Kb values for antagonists and inverse agonists and as EC50 values for partial agonists.

Chain of histamine H4 receptor (Q9H3N8 whole entry): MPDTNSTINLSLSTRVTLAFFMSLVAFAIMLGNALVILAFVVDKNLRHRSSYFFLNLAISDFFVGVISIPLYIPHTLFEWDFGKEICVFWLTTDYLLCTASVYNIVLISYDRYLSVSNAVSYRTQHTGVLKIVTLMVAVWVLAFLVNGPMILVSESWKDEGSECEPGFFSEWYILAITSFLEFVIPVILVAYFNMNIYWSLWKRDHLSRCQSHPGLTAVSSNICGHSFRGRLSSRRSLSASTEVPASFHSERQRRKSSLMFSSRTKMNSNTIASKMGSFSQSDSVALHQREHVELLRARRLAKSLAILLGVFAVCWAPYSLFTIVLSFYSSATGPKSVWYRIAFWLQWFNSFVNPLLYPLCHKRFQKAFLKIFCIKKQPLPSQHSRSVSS

**Q.** Which Potency does the source give for `CN[C@@H]1CCN(c2nc(N)nc3c2CCOc2ccc(OC)cc2-3)C1` [Example 47, 10-methoxy-4-[(3R)-3-(methylamino)pyrrolidin-1-yl]-5,6-dihydro[1]benzoxepino[5,4-d]pyrimidin-2-amine] here?
**A.** The Potency was 912 nM.

**Q.** Which Potency does the source give for `Nc1nc2c(c(N3CCNCC3)n1)CCOc1ccccc1-2` [Example 30, 4-Piperazin-1-yl-5,6-dihydro-7-oxa-1,3-diaza-dibenzo[a,c]cyclohepten-2-ylamine] here?
**A.** The Potency was 166 nM.

**Q.** `NCC(=O)Nc1nc2c(c(N3CCNCC3)n1)CCCc1ccccc1-2` [Example 89, 2-Amino-N-(4-piperazin-1-yl-6,7-dihydro-5H-benzo[6,7]cyclohepta[1,2-d]pyrimidin-2-yl)-acetamide] was tested. Which Potency did it give?
**A.** The Potency was 89 nM.

**Q.** How did the Potency turn out when `CN1CCN(c2nc(N)nc3c2CCCc2ccccc2-3)CC1` [Example 5, 4-(4-Methyl-piperazin-1-yl)-6,7-dihydro-5H-benzo[6,7]cyclohepta[1,2-d]-pyrimidin-2-ylamine] was run?
**A.** The Potency was 9.8 nM.

**Q.** How did the Potency turn out when `CNC1CN(c2nc(N)nc3c2CC[S+]([O-])c2ccccc2-3)C1` (stereo not shown) [Example 37, 4-(3-Methylamino-azetidin-1-yl)-7-oxo-6,7-dihydro-5H-7λ4-thia-1,3-diaza-dibenzo[a,c]cyclohepten-2-ylamine] was run?
**A.** Its Potency is 537 nM.

**Q.** For `Nc1nc2c(c(N3CC4CCCNC4C3)n1)SCCc1ccccc1-2` (stereo not shown) [Example 110, 4-(Octahydro-pyrrolo[3,4-b]pyridin-6-yl)-6,7-dihydro-5-thia-1,3-diaza-dibenzo[a,c]cyclohepten-2-ylamine], which Potency is on record?
**A.** The Potency was 54 nM.

**Q.** With `CC1Cc2c(nc(N)nc2N2CCNCC2)-c2ccccc21` (stereo not shown) [Example 4, 6-Methyl-4-piperazin-1-yl-5,6-dihydro-benzo[h]quinazolin-2-ylamine] as the molecule, how does the Potency read?
**A.** Its Potency is 398 nM.

**Q.** For `CN[C@@H]1CCN(c2ncnc3c2CCCc2ccccc2-3)C1` [Example 124, 4-(3-(R)-Methylamino-pyrrolidin-1-yl)-6,7-dihydro-5H-benzo[6,7]cyclohepta[1,2-d]pyrimidine], which Potency is on record?
**A.** The Potency was 1413 nM.

**Q.** `CN[C@@H]1CCN(c2nc(N)nc3c2CCCc2cc4c(cc2-3)CCCC4)C1` [Example 97, 4-((R)-3-Methylamino-pyrrolidin-1-yl)-6,7,9,10,11,12-hexahydro-5H-1,3-diaza-benzo[3,4]cyclohepta[1,2-b]naphthalen-2-ylamine] was tested. Which Potency did it give?
**A.** The Potency was 29 nM.

**Q.** With `CNC1CN(c2nc(N)nc3c2CCc2ccccc2-3)C1` [Example 40, 4-(3-Methylamino-azetidin-1-yl)-5,6-dihydro-benzo[h]quinazolin-2-ylamine] as the molecule, how does the Potency read?
**A.** Its Potency is 34 nM.

**Q.** Which Potency does the source give for `Nc1nc2c(c(N3CC[C@H](N)C3)n1)CCCCCc1ccccc1-2` [Example 25, 4-((S)-3-Amino-pyrrolidin-1-yl)-6,7,8,9-tetrahydro-5H-1,3-diaza-dibenzo[a,c]cyclononen-2-ylamine] here?
**A.** The Potency was 646 nM.

**Q.** With `CNc1ccc2c(c1)-c1nc(N)nc(N3C[C@H]4CCCN[C@H]4C3)c1CCC2` [Example 131, 10-N-methyl-4-[(4aR,7aR)-octahydro-6H-pyrrolo[3,4-b]pyridin-6-yl]-6,7-dihydro-5H-benzo[6,7]cyclohepta[1,2-d]pyrimidine-2,10-diamine] as the molecule, how does the Potency read?
**A.** Its Potency is 113 nM.

**Q.** With `CNC1CN(c2nc(N)nc3c2COc2ccccc2-3)C1` [Example 8, 1-(3-Methylamino-azetidin-1-yl)-10H-9-oxa-2,4-diaza-phenanthren-3-ylamine] as the molecule, how does the Potency read?
**A.** The Potency was 33 nM.

**Q.** How did the Potency turn out when `Nc1nc2c(c(N3CCCNCCC3)n1)CCCc1ccccc1-2` [Example 61, 4-(1,5-diazocan-1-yl)-6,7-dihydro-5H-benzo[6,7]cyclohepta[2-d]pyrimidin-2-amine] was run?
**A.** Its Potency is 8.7 nM.

**Q.** How did the Potency turn out when `Nc1nc2c(c(N3CC4CNCC3C4)n1)CCCc1ccccc1-2` (stereo not shown) [Example 81, 4-(3,6-Diaza-bicyclo[3.2.1]oct-6-yl)-6,7-dihydro-5H-benzo[6,7]cyclohepta[1,2-d]pyrimidin-2-ylamine] was run?
**A.** The Potency was 4169 nM.

**Q.** With `CN[C@@H]1CCN(c2nc(N)nc3c2S(=O)(=O)CCc2ccccc2-3)C1` [Example 111, 4-((R)-3-Methylamino-pyrrolidin-1-yl)-5,5-dioxo-6,7-dihydro-5H-5λ6-thia-1,3-diaza-dibenzo[a,c]cyclohepten-2-ylamine] as the molecule, how does the Potency read?
**A.** The Potency was 1413 nM.

**Q.** Which Potency does the source give for `Nc1nc(OC2CCNCC2)c2c(n1)-c1ccccc1CCC2` [Example 72, 4-(Piperidin-4-yloxy)-6,7-dihydro-5H-benzo[6,7]cyclohepta[1,2-d]pyrimidin-2-ylamine] here?
**A.** Its Potency is 1097 nM.

**Q.** For “4-(4-Dimethylamino-piperidin-1-yl)-6,7-dihydro-5H-benzo[6,7]cyclohepta[1,2-d]pyrimidin-2-ylamine [Example 114]”, which Potency is on record?
**A.** The Potency was 17 nM.

**Q.** Which Potency does the source give for `CN[C@@H]1CCN(c2nc(N)nc3c2CCOc2cc(C)ccc2-3)C1` [Example 49, 9-methyl-4-[(3R)-3-(methylamino)pyrrolidin-1-yl]-5,6-dihydro[1]benzoxepino[5,4-d]pyrimidin-2-amine] here?
**A.** Its Potency is 39 nM.

**Q.** `CN1CC[C@@H]2CN(c3nc(N)nc4c3CCCc3ccccc3-4)C[C@@H]21` [Example 15, 4-((3aR,6aR)-1-Methyl-hexahydro-pyrrolo[3,4-b]pyrrol-5-yl)-6,7-dihydro-5H-benzo[6,7]cyclohepta[1,2-d]pyrimidin-2-ylamine] was tested. Which Potency did it give?
**A.** Its Potency is 209 nM.

**Q.** Which Potency does the source give for `Nc1nc2c(c(N3CC4CCCNC4C3)n1)CCOc1cc(I)ccc1-2` (stereo not shown) [Example 102, 9-Iodo-4-octahydro-pyrrolo[3,4-b]pyridin-6-yl-5,6-dihydro-7-oxa-1,3-diaza-dibenzo[a,c]cyclohepten-2-ylamine] here?
**A.** Its Potency is 45 nM.

**Q.** Which Potency does the source give for `CN[C@@H]1CCN(c2nc(N)nc3c2CCOc2cc(Cl)ccc2-3)C1` [Example 48, 9-chloro-4-[(3R)-3-(methylamino)pyrrolidin-1-yl]-5,6-dihydro[1]benzoxepino[5,4-d]pyrimidin-2-amine] here?
**A.** The Potency was 43 nM.

**Q.** Which Potency does the source give for `CN[C@@H]1CCN(c2nc(N)nc3c2CCCCCc2ccccc2-3)C1` [Example 23, 4-(3-(R)-Methylamino-pyrrolidin-1-yl)-6,7,8,9-tetrahydro-5H-1,3-diaza-dibenzo[a,c]cyclononen-2-ylamine] here?
**A.** Its Potency is 56 nM.

**Q.** Which Potency does the source give for `Nc1nc2c(c(N3CCC(N)CC3)n1)CCCc1ccccc1-2` [Example 62, 4-(4-aminopiperidin-1-yl)-6,7-dihydro-5H-benzo[6,7]cyclohepta[1,2-d]pyrimidin-2-amine] here?
**A.** The Potency was 389 nM.

**Q.** `CNC(=O)Nc1nc2c(c(N3CCNCC3)n1)CCCc1ccccc1-2` [Example 90, 1-Methyl-3-(4-piperazin-1-yl-6,7-dihydro-5H-benzo[6,7]cyclohepta[1,2-d]pyrimidin-2-yl)-urea] was tested. Which Potency did it give?
**A.** Its Potency is 25119 nM.

**Q.** With `CN[C@@H]1CCN(c2nc(N)nc3c2CCOc2cc(OC)ccc2-3)C1` [Example 50, 9-methoxy-4-[(3R)-3-(methylamino)pyrrolidin-1-yl]-5,6-dihydro[1]benzoxepino[5,4-d]pyrimidin-2-amine] as the molecule, how does the Potency read?
**A.** Its Potency is 56 nM.

**Q.** With `Nc1nc2c(c(N3CC4(CCCCN4)C3)n1)CCCc1ccccc1-2` [Example 78, 4-(2,5-Diaza-spiro[3.5]non-2-yl)-6,7-dihydro-5H-benzo[6,7]cyclohepta[1,2-d]pyrimidin-2-ylamine] as the molecule, how does the Potency read?
**A.** The Potency was 891 nM.

**Q.** `CNC1CN(c2nc(N)nc3c2CC(C)c2ccccc2-3)C1` (stereo not shown) [Example 2, 6-Methyl-4-(3-methylamino-azetidin-1-yl)-5,6-dihydro-benzo[h]quinazolin-2-ylamine] was tested. Which Potency did it give?
**A.** Its Potency is 44 nM.

**Q.** How did the Potency turn out when `Nc1nc2c(c(N3CC4CCCNC4C3)n1)CCOc1cc(-c3ccccc3)ccc1-2` (stereo not shown) [Example 105, 4-Octahydro-pyrrolo[3,4-b]pyridin-6-yl-9-phenyl-5,6-dihydro-7-oxa-1,3-diaza-dibenzo[a,c]cyclohepten-2-ylamine] was run?
**A.** Its Potency is 83 nM.

**Q.** With `Nc1nc(O[C@H]2CCNC2)c2c(n1)-c1ccccc1CCC2` [Example 73, 4-((S)-Pyrrolidin-3-yloxy)-6,7-dihydro-5H-benzo[6,7]cyclohepta[1,2-d]pyrimidin-2-ylamine] as the molecule, how does the Potency read?
**A.** Its Potency is 468 nM.

**Q.** For `CN[C@@H]1CCN(c2nc(N)nc3c2CCOc2cc(I)ccc2-3)C1` [Example 100, 9-Iodo-4-((R)-3-methylamino-pyrrolidin-1-yl)-5,6-dihydro-7-oxa-1,3-diaza-dibenzo[a,c]cyclohepten-2-ylamine], which Potency is on record?
**A.** The Potency was 120 nM.

**Q.** With `Nc1nc2c(c(N3CC[C@H]4CNC[C@H]43)n1)CCCCCc1ccccc1-2` [Example 27, 4-((3aS,6aS)-Hexahydro-pyrrolo[3,4-b]pyrrol-1-yl)-6,7,8,9-tetrahydro-5H-1,3-diaza-dibenzo[a,c]cyclononen-2-ylamine] as the molecule, how does the Potency read?
**A.** Its Potency is 16596 nM.

**Q.** For `CN1CCN(c2nc(N)nc3c2CCc2ccccc2-3)CC1` [Example 42, 4-(4-Methyl-piperazin-1-yl)-5,6-dihydro-benzo[h]quinazolin-2-ylamine], which Potency is on record?
**A.** The Potency was 13 nM.

**Q.** `CN[C@@H]1CCN(c2nc(N)nc3c2CCOc2c(C)cccc2-3)C1` [Example 52, 8-Methyl-4-((R)-3-methylamino-pyrrolidin-1-yl)-5,6-dihydro-7-oxa-1,3-diaza-dibenzo[a,c]cyclohepten-2-ylamine] was tested. Which Potency did it give?
**A.** The Potency was 56 nM.

**Q.** With `CC(=O)Nc1cccc2c1-c1nc(N)nc(N3CCNCC3)c1CCC2` [Example 132, N-(2-Amino-4-piperazin-1-yl-6,7-dihydro-H-benzo[6,7]cyclohepta[1,2-d]pyrimidin-11-yl)-acetamide] as the molecule, how does the Potency read?
**A.** The Potency was 1096 nM.

**Q.** How did the Potency turn out when `Nc1nc2c(c(N3CCNCC3)n1)CCCc1ccc(F)cc1-2` [Example 13, 10-Fluoro-4-piperazin-1-yl-6,7-dihydro-5H-benzo[6,7]cyclohepta[1,2-d]pyrimidin-2-ylamine] was run?
**A.** The Potency was 7.2 nM.

**Q.** `CNC1CN(c2nc(N)nc3c2CCOc2ccccc2-3)C1` [Example 32, 4-(3-Methylamino-azetidin-1-yl)-5,6-dihydro-7-oxa-1,3-diaza-dibenzo[a,c]cyclohepten-2-ylamine] was tested. Which Potency did it give?
**A.** Its Potency is 8.7 nM.

From patent US8735411B2, “Macrocyclic benzofused pyrimidine derivatives” (AbbVie Inc., priority 2006, dated 2014)
